Values after ≈ are worked out from the molar mass of the structure shown. Values joined by “and” are separate entries in the source; they are usually repeats but may differ in a detail not shown here. Equal entries are not always repeated.
Experiments:
purified human FAS = target: T1, purified human FAS (Homo sapiens, UniProt P49327); assay: FAS enzymatic activity (malonyl-CoA dependent NADPH oxidation); format: biochemical; settings: (SB)
T1 construct: Human FAS was purified from cultured ZR-75-1 human breast cancer cells; endogenous in cells; host or cells: ZR-75-1 human breast cancer cells (ATCC); enzyme purified by PEG precipitation and Mono Q chromatography
Procedure: Purification of FAS from ZR-75-1 Human Breast Cancer Cells.
Human FAS was purified from cultured ZR-75-1 human breast cancer cells obtained from the American Type Culture Collection. The procedure, adapted from Linn et al., 1981, and Kuhajda et al., 1994, utilizes hypotonic lysis, successive polyethyleneglycol (PEG) precipitations, and anion exchange chromatography. ZR-75-1 cells are cultured at 37° C. with 5% CO2 in RPMI culture medium with 10% fetal bovine serum, penicillin and streptomycin.
Ten T150 flasks of confluent cells are lysed with 1.5 ml lysis buffer (20 mM Tris-HCl, pH 7.5, 1 mM EDTA, 0.1 mM phenylmethanesulfonyl fluoride (PMSF), 0.1% Igepal CA-630) and dounce homogenized on ice for 20 strokes. The lysate is centrifuged in JA-20 rotor (Beckman) at 20,000 rpm for 30 minutes at 4° C. and the supernatant is brought to 42 ml with lysis buffer. A solution of 50% PEG 8000 in lysis buffer is added slowly to the supernatant to a final concentration of 7.5%. After rocking for 60 minutes at 4° C., the solution is centrifuged in JA-20 rotor (Beckman) at 15,000 rpm for 30 minutes at 4° C. Solid PEG 8000 is then added to the supernatant to a final concentration of 15%. After the rocking and centrifugation is repeated as above, the pellet is resuspended overnight at 4° C. in 10 ml of Buffer A (20 mM K2HPO4, pH 7.4). After […] filtration, the protein solution is applied to a Mono Q 5/5 anion exchange column (Pharmacia). The column is washed for 15 minutes with buffer A at 1 ml/minute, and bound material is eluted with a linear 60-ml gradient over 60 minutes to 1 M KCl. FAS (MW˜270 kD) typically elutes at 0.25 M KCl in three 0.5 ml fractions identified using 4-15% SDS-PAGE with Coomassie G250 stain (Bio-Rad). FAS protein concentration is determined using the Coomassie Plus Protein Assay Reagent (Pierce) according to manufacturer's specifications using BSA as a standard. This procedure results in substantially pure preparations of FAS (>95%) as judged by Coomassie-stained gels.
Measurement of FAS Enzymatic Activity and Determination of the IC50 of the Compounds
FAS activity is measured by monitoring the malonyl-CoA dependent oxidation of NADPH spectrophotometrically at OD340 in 96-well plates (Dils et al and Arslanian et al, 1975). Each well contains 2 μg purified FAS, 100 mM K2HPO4, pH 6.5, 1 mM dithiothreitol (Sigma), and 187.5 μM β-NADPH (Sigma). Stock solutions of inhibitors are prepared in DMSO at 2, 1, and 0.5 mg/ml resulting in final concentrations of 20, 10, and 5 μg/ml when 1 μl of stock is added per well. For each experiment, cerulenin (Sigma) is run as a positive control along with DMSO controls, inhibitors, and blanks (no FAS enzyme) all in duplicate.
The assay is performed on a Molecular Devices SpectraMax Plus Spectrophotometer. The plate containing FAS, buffers, inhibitors, and controls are placed in the spectrophotometer heated to 37° C. Using the kinetic protocol, the wells are blanked on duplicate wells containing 100 μl of 100 mM K2HPO4, pH 6.5 and the plate is read at OD340 at 10 sec intervals for 5 minutes to measure any malonyl-CoA independent oxidation of NADPH. The plate is removed from the spectrophotometer and malonyl-CoA (67.4 μM, final concentration per well) and […] (61.8 μM, final concentration per well) are added to each well except to the blanks. The plate is read again as above with the kinetic protocol to measure the malonyl-CoA dependent NADPH oxidation. The difference between the Δ OD340 for the malonyl-CoA dependent and non-malonyl-CoA dependent NADPH oxidation is the specific FAS activity. Because of the purity of the FAS preparation, non-malonyl-CoA dependent NADPH oxidation is negligible.
The IC50 for the compounds against FAS is determined by plotting the Δ OD340 for each inhibitor concentration tested, performing linear regression and computing the best-fit line, r^2 values, and 95% confidence intervals. The concentration of compound yielding 50% inhibition of FAS is the IC50. […]

[1] = tested on: MCF-7 human breast cancer cells; assay: XTT cytotoxicity assay (M); format: cell-based; settings: MCF7
Procedure: (§1) The XTT assay is a non-radioactive alternative for the [^51Cr] release cytotoxicity assay. XTT is a tetrazolium salt that is reduced to a formazan dye only by metabolically active, viable cells. The reduction of XTT is measured spectrophotometrically as OD490-OD650.
To measure the cytotoxicity of specific compounds against cancer cells, 9×10^3 MCF-7 human breast cancer cells, obtained from the American Type Culture Collection are plated per well in 96 well plates in DMEM medium with 10% fetal bovine serum, insulin, penicillin, and streptomycin. Following overnight culture at 37° C. and 5% CO2, the compounds to be tested, dissolved in DMSO, are added to the wells in 1 μl volume at the following concentrations: 80, 40, 20, 10, 5, 2.5, 1.25, and 0.625 μg/ml in triplicate. Additional concentrations are tested if required. 1 μl of DMSO is added to triplicate wells are the vehicle control. C75 is run at 40, 20, […], and 5 μg/ml in triplicate as positive controls.
(§2) After 72 hours of incubation, cells are incubated for 4 hours with the XTT reagent as per manufacturer's instructions (Cell Proliferation Kit II (XTT) Roche). Plates are read at OD490 and OD650 on a Molecular Devices SpectraMax Plus Spectrophotometer. Three wells containing the XTT reagent without cells serve as the plate blank. XTT data are reported as OD490-OD650. Averages and standard error of the mean are computed using SOFTmax Pro software ([…]).
(§3) The IC50 for the compounds is defined as the concentration of drug leading to a 50% reduction in OD490-OD650 compared to controls. The OD490-OD650 are computed by the SOFTmax PRO software (Molecular Devices) for each compound concentration. IC50 is calculated by linear regression, plotting the FAS activity as percent of control versus drug concentrations. Linear regression, best-fit line, r^2, and 95% confidence intervals are determined using Prism Version 3.0 (Graph Pad Software).

(O) = assay: XTT cytotoxicity assay (O); format: cell-based; settings: read-out: XTT (IC50) (O)
Procedure: as §1, §2, §3

fatty acid oxidation = assay: β-Oxidation assay, isolation of acid soluble products; format: cell-based; set-up: Beta Oxidation: unit not given here; settings: for FAO MAx: maximal fatty acid oxidation, at the concentration given under E32
Procedure: β-Oxidation Assay—Isolation of Acid Soluble Products A 24 well plate with 1 ml per well was prepared with 2.5×10^5 cells/well. The cells were incubated O/N. The next day, a solubilized palmitate solution was prepared. 50 μls of (1-^14C) Palmitic acid was added to a 2 ml centrifuge tube and dried under nitrogen gas. 2 mls of α-CD (α-Cyclodextran)-10 mg/ml in 10 mM Tris were added. This solution was incubated in a 37° C. water bath for 30 minutes. A hot mix was prepared by adding 25 μls of this solution to 2.5 μls of 200 μM Carnitine and 222.5 μls of serum free medium that is used for cells. The cells were then treated with the test compound in triplicate, and incubated at 37° C. for 60 minutes. The medium was removed and 250 μls of the hot mix were added. The test compound was added again, and further incubated at 37° C. for 60 minutes. The reaction was stopped with 50 μls of 2.6 N HClO4. The contents of the plate were transferred to a 1.5 ml centrifuge tube, and 50 μls of 4N KOH were then added, and the tube incubated in a 60° C. water bath for 30 min. Sodium acetate (1M, 75 μls) and sulfuric acid (3N, 50 μls) were added to the solution and vortexed. The tube was spun for 7 minutes at 1000 rpm at room temperature. A portion (225 μls) was removed, and the following were added (vortex after each addition, twice at the end): 938 μls of 1:1 Chloroform:Methanol; 468 μls of Chloroform; 281 μls distilled Water. The tubes were spun at 1000 rpm for 5 minutes. The upper phase was removed into a large glass scintillation vial and 5 mls of Budget solvent (scintillation liquid) was added. The tubes were well vortexed. Finally, C14 was counted for one minute.

[2] = target: rat liver acyl-CoA synthetase; settings: read-out: 50% inhibition of rat liver acyl-CoA synthetase; cited from earlier work
Raji cells = settings: cited from earlier work
viral HIV protease = viral HIV protease (Human immunodeficiency virus type 1 group M subtype B, UniProt P04585); settings: cited from earlier work
[3] = tested on: Mycobacterium tuberculosis; settings: in vitro; cited from earlier work

T1 sequence (P49327 whole entry): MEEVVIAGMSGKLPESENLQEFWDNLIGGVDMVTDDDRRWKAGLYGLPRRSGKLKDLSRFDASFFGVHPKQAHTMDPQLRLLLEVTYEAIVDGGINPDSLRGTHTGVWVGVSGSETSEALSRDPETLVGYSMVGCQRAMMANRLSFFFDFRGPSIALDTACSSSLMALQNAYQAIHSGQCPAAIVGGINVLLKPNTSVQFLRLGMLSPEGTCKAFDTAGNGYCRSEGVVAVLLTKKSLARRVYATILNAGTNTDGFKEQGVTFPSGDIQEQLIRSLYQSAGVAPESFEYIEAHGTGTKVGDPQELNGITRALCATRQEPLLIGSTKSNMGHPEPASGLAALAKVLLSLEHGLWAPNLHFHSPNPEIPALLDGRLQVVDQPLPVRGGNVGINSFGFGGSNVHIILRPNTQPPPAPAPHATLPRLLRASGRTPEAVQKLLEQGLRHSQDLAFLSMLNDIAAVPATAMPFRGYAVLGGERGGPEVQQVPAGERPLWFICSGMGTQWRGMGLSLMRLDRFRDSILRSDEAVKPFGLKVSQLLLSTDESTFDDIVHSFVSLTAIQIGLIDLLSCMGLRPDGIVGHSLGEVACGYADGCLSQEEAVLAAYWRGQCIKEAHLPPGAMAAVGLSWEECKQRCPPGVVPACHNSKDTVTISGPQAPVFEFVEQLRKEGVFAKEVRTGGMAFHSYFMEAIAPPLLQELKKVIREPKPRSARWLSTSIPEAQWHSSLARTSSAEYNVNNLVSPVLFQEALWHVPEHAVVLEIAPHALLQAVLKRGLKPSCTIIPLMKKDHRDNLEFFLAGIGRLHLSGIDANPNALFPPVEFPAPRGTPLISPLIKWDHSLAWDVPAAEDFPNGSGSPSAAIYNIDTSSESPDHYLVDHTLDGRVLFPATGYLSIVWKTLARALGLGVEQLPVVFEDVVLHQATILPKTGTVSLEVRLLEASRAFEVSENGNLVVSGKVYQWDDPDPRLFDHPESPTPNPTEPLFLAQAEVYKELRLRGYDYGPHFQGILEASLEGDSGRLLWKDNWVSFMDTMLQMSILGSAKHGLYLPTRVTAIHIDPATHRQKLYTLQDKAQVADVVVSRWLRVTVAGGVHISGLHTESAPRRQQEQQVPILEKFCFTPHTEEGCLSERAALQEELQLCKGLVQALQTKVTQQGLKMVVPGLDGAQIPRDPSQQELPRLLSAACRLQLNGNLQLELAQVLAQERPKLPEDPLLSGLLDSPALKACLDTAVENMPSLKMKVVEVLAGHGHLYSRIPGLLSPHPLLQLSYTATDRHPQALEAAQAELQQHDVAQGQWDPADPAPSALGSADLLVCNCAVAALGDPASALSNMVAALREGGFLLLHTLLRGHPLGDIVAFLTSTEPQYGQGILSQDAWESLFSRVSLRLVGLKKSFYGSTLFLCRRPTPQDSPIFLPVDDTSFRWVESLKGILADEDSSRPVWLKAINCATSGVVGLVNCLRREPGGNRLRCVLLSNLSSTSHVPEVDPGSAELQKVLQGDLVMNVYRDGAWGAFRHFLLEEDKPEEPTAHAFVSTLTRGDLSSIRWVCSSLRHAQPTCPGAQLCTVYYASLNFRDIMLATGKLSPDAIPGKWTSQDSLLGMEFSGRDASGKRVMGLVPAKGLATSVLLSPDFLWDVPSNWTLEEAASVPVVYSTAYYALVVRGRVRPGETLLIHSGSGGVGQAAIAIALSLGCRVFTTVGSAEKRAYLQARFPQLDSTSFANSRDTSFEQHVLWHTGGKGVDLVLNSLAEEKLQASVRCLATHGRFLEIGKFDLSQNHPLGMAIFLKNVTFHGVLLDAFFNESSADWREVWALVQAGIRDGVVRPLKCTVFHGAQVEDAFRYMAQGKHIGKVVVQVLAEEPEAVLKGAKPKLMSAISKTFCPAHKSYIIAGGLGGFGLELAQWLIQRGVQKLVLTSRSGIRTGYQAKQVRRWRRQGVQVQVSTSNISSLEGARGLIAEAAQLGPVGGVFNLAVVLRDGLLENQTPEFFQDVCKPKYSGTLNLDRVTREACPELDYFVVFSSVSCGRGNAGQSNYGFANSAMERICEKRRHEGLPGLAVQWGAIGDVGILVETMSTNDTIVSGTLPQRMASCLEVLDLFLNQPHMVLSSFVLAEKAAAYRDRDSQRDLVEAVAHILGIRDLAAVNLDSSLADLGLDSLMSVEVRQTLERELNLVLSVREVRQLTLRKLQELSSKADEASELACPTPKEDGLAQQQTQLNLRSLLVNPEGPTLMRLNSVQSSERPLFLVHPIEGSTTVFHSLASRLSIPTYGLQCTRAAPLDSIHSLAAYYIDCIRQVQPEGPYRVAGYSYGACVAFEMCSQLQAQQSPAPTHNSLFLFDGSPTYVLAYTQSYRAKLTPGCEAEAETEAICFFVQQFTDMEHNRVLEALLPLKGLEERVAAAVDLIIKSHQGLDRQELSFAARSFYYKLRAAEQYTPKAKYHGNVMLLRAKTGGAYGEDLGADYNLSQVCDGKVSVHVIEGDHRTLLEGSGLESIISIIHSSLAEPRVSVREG

Structure (SMILES) | FAS (IC50) (SB) (purified human FAS) | IC50 [1] [µg/mL] | IC50 ((O)) [µg/mL] | FAO MAx, concentration at maximum (fatty acid oxidation) [µg/mL] | FAO SC 150 (fatty acid oxidation) | Beta Oxidation (fatty acid oxidation; 0.097 ug/ml) | Beta Oxidation (fatty acid oxidation; 0.39 ug/ml) | Beta Oxidation (fatty acid oxidation; 1.56 ug/ml) | Beta Oxidation (fatty acid oxidation; 6.25 ug/ml) | Beta Oxidation (fatty acid oxidation; 25 ug/ml) | Beta Oxidation (fatty acid oxidation; 100 ug/ml) | FAO MAx (fatty acid oxidation) | IC50 [2] [µM] | growth inhibition in Raji cells at (Raji cells) [µM] | inhibition of viral HIV protease at (viral HIV protease) [mg/mL] | activity against Mycobacterium tuberculosis [3]
CCCCCCCCC1(C)SC(=O)C(C)(C)C1=O (stereo not shown) [Compound 6, 3,3,5-Trimethyl-5-octyl-thiophene-2,4-dione] | Neg (SB) | 23 (≈ 85 µM) | > 80 | 6.25 | Neg | 100 and 86 | 110 and 93 | 110 and 102 | 121 and 141 and 130 | 57 and 52 and 53 | 19 and 29 | 141% at |  |  |  | 
CCCCCCC1(C)SC(=O)C(C)(C)C1=O (stereo not shown) [Compound 9, 3,3,5-Trimethyl-5-hexyl-thiophene-2,4-dione] | Neg (SB) | 5.3 (≈ 21.9 µM) | 14 (≈ 57.8 µM) | 6.25 | Neg | 96 | 99 | 97 | 115 | 58 | 27 | 115% |  |  |  | 
CCCC=CCC=CC=CC=NN=NO [Triacsin C, 1-hydroxy-3-(E,E,E-2′,4′,7′-undecatrienylidine) triazene] |  |  |  |  |  |  |  |  |  |  |  |  | 8.7 | 1.0 |  | 
C/C=C/C/C=C/CCC(=O)[C@H]1O[C@H]1C(N)=O [cerulenin, (2S,3R)-2,3-epoxy-4-oxo-7,10 dodecadienoyl amide] |  |  |  |  |  |  |  |  |  |  |  |  |  |  | 5 | no activity was found

Source: patent publication US20090005435A1, “Novel Compounds, Pharmaceutical Compositions Containing Same, and Methods of Use for Same” (priority 2004, published 2009)
